We go through 1 compound from patent US20070280915A1, “Combination Therapies Employing A Composition Comprising A Hmg Coa Reductase Inhibitor And A Vitamin B6 Related Compound” (priority 2003, published 2007).

The target in one data set is T1, CYP2A6 (Homo sapiens, UniProt P11509).
T1 sequence (P11509 1-494): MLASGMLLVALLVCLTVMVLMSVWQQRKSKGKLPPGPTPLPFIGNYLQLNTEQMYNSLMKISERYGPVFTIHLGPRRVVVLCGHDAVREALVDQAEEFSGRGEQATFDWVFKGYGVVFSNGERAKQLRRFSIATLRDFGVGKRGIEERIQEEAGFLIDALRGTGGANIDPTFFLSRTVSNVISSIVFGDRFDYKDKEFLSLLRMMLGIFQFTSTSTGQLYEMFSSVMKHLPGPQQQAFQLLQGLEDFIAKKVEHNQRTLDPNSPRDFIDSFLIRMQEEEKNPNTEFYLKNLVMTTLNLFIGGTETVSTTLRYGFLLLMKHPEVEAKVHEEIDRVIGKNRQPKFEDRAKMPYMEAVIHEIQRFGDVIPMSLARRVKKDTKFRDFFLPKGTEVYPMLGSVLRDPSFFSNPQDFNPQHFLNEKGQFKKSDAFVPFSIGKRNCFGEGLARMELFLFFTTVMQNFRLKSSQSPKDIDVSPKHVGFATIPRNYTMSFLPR
As to the kind of experiment: CYP2A6 inhibition assay (substrate coumarin). The conditions noted are these: 0.0169 to […] tested, na = concentration-dependent inhibition not observed. The source says:
The CYP inhibition assays used microsomes (Supersomes®, Gentest Corp., Woburn, Mass.) prepared from insect cells, each expressing an individual CYP subtype (CYP1A2, CYP2A6, CYP2B6, CYP2C8, CYP2C9, CYP2C19, CYP2D6, CYP2E1 or CYP3A4) expressed from the corresponding human CYP cDNA using a baculovirus expression vector. The microsomes also incorporated supplemental cDNA-expressed human reductase and/or cytochrome b5, as these enzymes stimulate the activity of the CYPs, allowing for a reduction in the amount of enzyme required per reaction (Gentest Corp.). The assays monitored, via fluorescence detection, the formation of a fluorescent metabolite following incubation of the microsomes with a specific CYP substrate. […] Reactions (0.2 mL) were performed in 96-well microtitre plates at 37° C. in the presence of an NADPH regenerating system [NADP+, glucose-6-phosphate (G6P), glucose-6-phosphate dehydrogenase (G6PDH)] and MgCl2. […] All determinations were performed in duplicate. The reagent solutions used for all of the CYP subtype assays, except CYP2C19 and CYP3A4, were prepared by MBDI. For CYP2C19 and CYP3A4, complete reagent kits purchased from Gentest Corp. (CYP2C19/CEC: Cat. No. HTS-4000, Lot No. 1; CYP3A4/BFC: Cat. No. HTS-1000, Lot No. 1) were used to perform the assays.
Eight inhibitor and test compound concentrations were tested using 3-fold serial dilutions. The microtitre plates containing 0.1 mL/well of the latter mixture were pre-warmed to 37° C. in an incubator. […] The amount of metabolic product formed was quantified by fluorescence detection in a fluorescence plate reader utilizing excitation and emission filters that had been optimized for the detection of each metabolite.
Data Analysis—The mean of the duplicate fluorescent signals in the presence and absence (vehicle control) of each compound was calculated and corrected for the background noise. Percent inhibition was calculated as the difference in the corrected fluorescent signals in the absence and presence of the compound, divided by the corrected fluorescent signal in the absence of compound, multiplied by 100%.

The next data set concerns the target CYP1A2 (Homo sapiens, UniProt P05177). Description: CYP1A2 inhibition assay (Supersomes, fluorescent metabolite, substrate CEC). The conditions noted are these: 0.0169 to […] tested, na = concentration-dependent inhibition not observed. From the text: The CYP inhibition assays used microsomes (Supersomes®, Gentest Corp., Woburn, Mass.) prepared from insect cells, each expressing an individual CYP subtype (CYP1A2, CYP2A6, CYP2B6, CYP2C8, CYP2C9, CYP2C19, CYP2D6, CYP2E1 or CYP3A4) expressed from the corresponding human CYP cDNA using a baculovirus expression vector. The microsomes also incorporated supplemental cDNA-expressed human reductase and/or cytochrome b5, as these enzymes stimulate the activity of the CYPs, allowing for a reduction in the amount of enzyme required per reaction (Gentest Corp.). The assays monitored, via fluorescence detection, the formation of a fluorescent metabolite following incubation of the microsomes with a specific CYP substrate. […]
Eight inhibitor and test compound concentrations were tested using 3-fold serial dilutions. […] The amount of metabolic product formed was quantified by fluorescence detection in a fluorescence plate reader utilizing excitation and emission filters that had been optimized for the detection of each metabolite.
Data Analysis—The mean of the duplicate fluorescent signals in the presence and absence (vehicle control) of each compound was calculated and corrected for the background noise. […]

CYP1A2, sequence (P05177 whole entry): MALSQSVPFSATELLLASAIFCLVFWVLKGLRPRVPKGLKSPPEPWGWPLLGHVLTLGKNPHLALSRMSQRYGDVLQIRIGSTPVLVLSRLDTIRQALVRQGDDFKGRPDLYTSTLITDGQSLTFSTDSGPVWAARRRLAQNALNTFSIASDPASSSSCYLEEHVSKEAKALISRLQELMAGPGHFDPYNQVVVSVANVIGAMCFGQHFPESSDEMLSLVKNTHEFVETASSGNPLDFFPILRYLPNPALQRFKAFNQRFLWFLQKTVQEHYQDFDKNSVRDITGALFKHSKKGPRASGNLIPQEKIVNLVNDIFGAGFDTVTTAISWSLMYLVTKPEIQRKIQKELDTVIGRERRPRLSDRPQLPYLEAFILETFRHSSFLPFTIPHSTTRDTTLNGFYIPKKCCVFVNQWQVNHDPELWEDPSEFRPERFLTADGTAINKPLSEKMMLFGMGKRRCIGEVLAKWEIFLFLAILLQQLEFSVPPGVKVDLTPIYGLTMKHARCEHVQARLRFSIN

For `Cc1ncc(COP(=O)(O)O)c(C=O)c1O` [P5P, pyridoxal-5-phosphate], the “Pyridoxal 5′-phosphate IC50” value at CYP2A6 and at CYP1A2 was “did not inhibit” each time.
